Read-outs that look alike come from different tables or passages of the source.

The target in this test is T1, TRPC4 (Homo sapiens, UniProt Q9UBN4).
T1 construct: expressed in transfected cells
T1 sequence (Q9UBN4 1-982 isoform Q9UBN4-5): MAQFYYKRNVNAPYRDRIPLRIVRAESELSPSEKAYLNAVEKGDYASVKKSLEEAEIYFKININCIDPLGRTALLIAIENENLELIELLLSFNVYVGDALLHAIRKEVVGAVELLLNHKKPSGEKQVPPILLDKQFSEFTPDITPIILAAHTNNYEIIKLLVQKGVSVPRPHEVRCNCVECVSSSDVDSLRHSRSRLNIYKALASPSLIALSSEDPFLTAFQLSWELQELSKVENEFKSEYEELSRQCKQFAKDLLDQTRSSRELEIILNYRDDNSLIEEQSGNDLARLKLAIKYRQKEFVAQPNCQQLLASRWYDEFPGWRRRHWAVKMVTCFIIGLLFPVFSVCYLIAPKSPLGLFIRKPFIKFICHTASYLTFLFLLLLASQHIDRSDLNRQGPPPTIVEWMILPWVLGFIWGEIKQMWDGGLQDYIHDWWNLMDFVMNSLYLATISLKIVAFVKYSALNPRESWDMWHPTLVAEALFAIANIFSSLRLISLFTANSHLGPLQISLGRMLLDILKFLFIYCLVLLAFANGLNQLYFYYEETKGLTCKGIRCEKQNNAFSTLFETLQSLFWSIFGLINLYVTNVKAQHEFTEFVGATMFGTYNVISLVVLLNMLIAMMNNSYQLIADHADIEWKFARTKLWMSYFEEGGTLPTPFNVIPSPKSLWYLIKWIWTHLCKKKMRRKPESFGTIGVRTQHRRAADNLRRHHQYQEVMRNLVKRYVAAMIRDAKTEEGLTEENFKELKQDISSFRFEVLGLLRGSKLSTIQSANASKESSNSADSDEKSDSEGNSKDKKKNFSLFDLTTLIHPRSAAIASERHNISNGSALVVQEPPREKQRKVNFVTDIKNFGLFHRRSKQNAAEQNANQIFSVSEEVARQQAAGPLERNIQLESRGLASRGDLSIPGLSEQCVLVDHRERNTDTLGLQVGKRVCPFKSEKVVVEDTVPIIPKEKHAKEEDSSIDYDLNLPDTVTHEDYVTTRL
Description: TRPC4 activity assay (FLIPR calcium fluorescence, HEK-TREx hTRPC4 cells). The class given is cell-based. Here is the method: ICLN-1694 cells (HEK-TREx hTRPC4) expressing TRPC4 were generated as follows. Commercially available HekTrex-293 cells were seeded at 0.7×10^6 cells/well in a 1×6-well plate 24 hrs prior to transfection using 2 mL cell growth media containing no antibiotics (lx DMEM/high glucose (Hyclone #SH30022.02); 10% fetal bovine serum (Sigma) 2 mM sodium pyruvate, 10 mM HEPES). […] On day 2, 2 μg of plasmid DNA plus 6 μl of Xtreme-GENE HP reagent in Optimem (200 μl total volume) was prepared and incubated for 15 min at room temperature. This plasmid solution was then gently overlayed dropwise onto each well and the plate was gently swirled to mix complex with the media for approximately 30 seconds. Transfected cells were incubated at 37° C. in a 10% CO2 incubator for 24 hrs. The transfected cells were harvested and transferred into 2×150 mm dishes containing cell growth media with no antibiotics at 37° C.
The next day selection was initiated to generate a stable pool by adding cell growth media containing 150 μg/mL Hygromycin and 5 μg/mL Blasticidin and cells were allowed to grow. Media with the selection agent was changed every 1-2 days as needed to remove dead cells. After 7 days, the hygromycin concentration was reduced to 75 μg/mL and cells growth was allowed to continue.
Single clones were selected as follows. The stable pool was diluted to 10 cells/mL and seeded (100 μl/well) into 24×96 well plates (˜1 cell/well) and allowed to grow for 7 days in cell growth media. Fresh media (100 μl) was added and the cells allowed to grow for another 1-2 weeks and then stored frozen or used immediately.
10-point dose response curves were generated using the Echo-550 acoustic dispenser. Compound source plates were made by serially diluting compound stocks to create 10 mM, 1 mM, and 0.1 mM solutions in DMSO into Echo-certified LDV plates. The Echo then serially spotted 100% DMSO stock solutions into source dose response plates to generate a 4-fold dilution scheme. 100% DMSO was added to the spotted dose response plates to bring the final volume to 5 μl. 300 nl of the dose response stock plate was then spotted into pre-incubation and stimulation assay plates. 50 μl of pre-incubation buffer and 100 μl of stimulation buffer was then added to the plates resulting in a final assay test concentration range of 30 μM to 0.0001 μM with a final DMSO concentration of 0.3%.
ICLN-1694 cells (HEK-TREx hTRPC4) were plated onto 384 well, black pdl-coated microplates and maintained in cell growth media supplemented with 1 μg/mL tetracycline the day prior to use for experiments. TRPC4 expression was induced by the application of 1 μg/mL tetracycline at the time of plating. […] Cells were incubated at room temperature, protected from light, for 60-90 minutes. After the incubation period, the dye was removed and replaced with 10 μl of EBSS. Cell, pre-incubation and stimulation plates were loaded onto the FLIPR-II and the assay was initiated. The FLIPR measured a 10 second baseline and then added 10 μl of 2× compounds (or controls). Changes in fluorescence were monitored for an additional 5 minutes. After a 5 minute pre-incubation, 20 μl of 2× Englerin A (with 1× compound or controls) was added to the cell plate. The final Engerlin A stimulation concentration in the assay was 100 nM. After the Englerin A addition, changes in fluorescence were monitored for an additional 5 minutes.
Compound modulation of TRPC4 calcium response was determined as follows. After the Englerin A, fluorescence was monitored for a 5-minute period. The maximum relative fluorescence response (minus the control response of 1 μM of an internal control compound known to maximally block TRPC4 calcium response, the “REF INHIB” in the formula below) was captured and exported from the FLIPR.
Compound effect is calculated as % inhibition using the following formula: […]
wherein “RFU” is the relative fluorescent units.

Where [1] appears, read: Table 5, HEK-TREx hTRPC4, read-out: TRPC4 FLIPR IC50.
Setting [2] is: Table 6, HEK-TREx hTRPC4, read-out: hTRPC4-FLIPR IC50.
Setting [3] is: Table 7, HEK-TREx hTRPC4, read-out: TRPC4-FLIPR IC50.

In general, IC50 refers to the concentration at which inhibition is half-maximal. On to `CCc1ncccc1N(CC)C1CCN(c2cn[nH]c(=O)c2Cl)CC1` [LW, 4-chloro-5-[4-[ethyl(2-ethylpyridin-3-yl)amino]piperidin-1-yl]-2,3-dihydropyridazin-3-one], for which the IC50 runs as follows: under setting [1], 0.01 to 1000 nM; under setting [2], 0.01 to 1000 nM.

For `CCc1ncccc1[C@H](C)N1CCN(c2cn[nH]c(=O)c2Cl)CC1` [LY, 4-chloro-5-[4-[(1S)-1-(2-ethylpyridin-3-yl)ethyl]piperazin-1-yl]-2,3-dihydropyridazin-3-one], the IC50 runs as follows: under setting [1], 0.01 to 1000 nM; under setting [2], 0.01 to 1000 nM.

Turning to `CC(c1ccc(F)cc1C(F)(F)F)N1CCN(c2cn[nH]c(=O)c2Cl)CC1=O` (single isomer, unassigned) [MF], under setting [2], the IC50 was 0.01 to 1000 nM.

Consider `C[C@@H]1Cc2c(nnn2[C@H](C)c2ccccc2C(F)(F)F)CN1c1cn[nH]c(=O)c1Cl` [MX, 4-chloro-5-[(6R)-6-methyl-1-[(1R)-1-[2-(trifluoromethyl)phenyl]ethyl]-1H,4H,5H,6H,7H-[1,2,3]triazolo[4,5-c]pyridin-5-yl]-2,3-dihydropyridazin-3-one], for which the IC50 is, setting by setting: under setting [1], 0.01 to 1000 nM; under setting [3], 0.01 to 1000 nM.

Turning to `CN1CCN(Cc2nn(Cc3ccccc3C(F)F)c3c2CN(c2cn[nH]c(=O)c2Cl)CC3)CC1` [OU, 4-Chloro-5-(1-[[2-(difluoromethyl)phenyl]methyl]-3-[(4-methylpiperazin-1-yl)methyl]-1H,4H,5H,6H,7H-pyrazolo[4,3-c]pyridin-5-yl)-2,3-dihydropyridazin-3-one], the IC50 under setting [3] lay in the range of 0.01 to 1000 nM.

Take `CN1CCN(C(=O)c2nn(Cc3ccccc3C(F)F)c3c2CN(c2cn[nH]c(=O)c2Cl)CC3)CC1` [OM]: the concentration for half-maximal inhibition (IC50) under setting [3] lay in the range of 0.01 to 1000 nM.

As to `CN(c1ncc2c(n1)CN(c1cn[nH]c(=O)c1Cl)C2)c1ccccc1C(F)(F)F` [QM], the IC50 under setting [1] was in the range of 0.01 to 1000 nM and the IC50 under setting [3] was 0.01 to 1000 nM.

Take `NC(=O)c1nn(Cc2ccccc2C(F)(F)F)c2c1CN(c1cn[nH]c(=O)c1Cl)CC2` [OP, 5-(5-Chloro-6-oxo-1,6-dihydropyridazin-4-yl)-1-[[2-(trifluoromethyl)phenyl]methyl]-1H,4H,5H,6H,7H-pyrazolo[4,3-c]pyridine-3-carboxamide]: the IC50 under setting [1] lay within 0.01 to 1000 nM and the IC50 under setting [3] fell in the range of 0.01 to 1000 nM.

As for `O=C1CN(c2cn[nH]c(=O)c2Cl)CCN1Cc1ccccc1C(F)(F)F` [AO], the IC50 under setting [1] was 0.01 to 1000 nM.

Regarding `CN(C)C(=O)c1nc2c(n1Cc1ccccc1C(F)(F)F)CCN(c1cn[nH]c(=O)c1Cl)C2` [PW], the IC50 under setting [1] fell in the range of 0.01 to 1000 nM and the IC50 under setting [3] fell in the range of 0.01 to 1000 nM.

(Values after patent US20220152031A1, “PYRIDAZINONES AND METHODS OF USE THEREOF” (Goldfinch Bio, Inc., priority 2019, published 2022).)
